Among the test systems are MOLT-4; SK-MEL-28; SNB-75; K562; RXF 393; COLO 205; HL-60; CAKI-1; TK-10; U-251; M14; UO-31; NCI-H460; PC-3; LOX IMVI; SN12C; HOP-62; Malme-3M; NCI-H522; SF-539.
Common to all, as to test: NCI anticancer screen, dose series, 48 h

Here are results for eleven compounds from ChEMBL document CHEMBL1201862, “PubChem BioAssay data set” (2004).

Molecules are shown by their SMILES.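 Cultured in 96-well plates, cells were exposed to test compound for 48 hours across five concentrations. Here, GI50 denotes the concentration required for 50% inhibition of growth.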 The source made the active and inactive calls. Cut-off read from the data, not from the text of the source: active = GI50 up to about 1.1 µM and inactive = higher.

Take `CCOC(=O)CC1C(C(=O)OCC)=Cn2c([nH]c3cccc4cccc2c43)=C1C(=O)OCC` (stereo not given): the GI50 with MOLT-4, in the test with SK-MEL-28, in the test with SNB-75, with K562, in the test on RXF 393 and in the test with COLO 205 was > 100 µM (inactive) each time. The GI50 is 25.3 µM (inactive) in the test with HL-60; > 100 µM (inactive) with CAKI-1; > 100 µM (inactive) with TK-10; > 100 µM (inactive) with U-251; > 100 µM (inactive) in the test on M14; > 100 µM (inactive) in the test with UO-31. The GI50 was > 100 µM (inactive) in the test on NCI-H460; 91 µM (inactive) with PC-3; > 100 µM (inactive) in the test on LOX IMVI; > 100 µM (inactive) in the test on SN12C; > 100 µM (inactive) in the test with HOP-62.

For the compound `COc1cc(C2S/C(=C/c3ccccc3)C(=O)N2c2ccc(Cl)c(Cl)c2)cc(OC)c1OC` (stereo not given), the GI50 with MOLT-4 is 28.8 µM (inactive); in the test with SK-MEL-28, 17.1 µM (inactive); in the test with K562, 15.2 µM (inactive); with RXF 393, > 51.8 µM (inactive); with COLO 205, 46.6 µM (inactive); in the test on HL-60, 15.7 µM (inactive). Moreover, the GI50 is > 70.8 µM (inactive) in the test on CAKI-1; > 100 µM (inactive) in the test on TK-10; 38.7 µM (inactive) in the test on U-251; 28.8 µM (inactive) in the test on M14; 33.3 µM (inactive) in the test with UO-31; 42 µM (inactive) with Malme-3M. Also, the GI50 is 30.7 µM (inactive) in the test on NCI-H460; 20.5 µM (inactive) in the test with PC-3; 19.2 µM (inactive) in the test on LOX IMVI; 14.1 µM (inactive) with NCI-H522; > 61.4 µM (inactive) in the test on SN12C; 47.3 µM (inactive) in the test with HOP-62.

Turning to `c1cc(-c2csc(-c3ccsc3)c2)cs1`, the GI50 with MOLT-4, with SK-MEL-28, with SNB-75, in the test on K562, with RXF 393 and with COLO 205 was > 100 µM (inactive) throughout. Moreover, the GI50 in the test with HL-60 was > 100 µM (inactive); in the test on CAKI-1 it was > 100 µM (inactive); in the test on TK-10 it was > 100 µM (inactive); with U-251 it was > 100 µM (inactive); in the test on M14 it was 47 µM (inactive); with UO-31 it was > 100 µM (inactive). Besides, the GI50 was > 100 µM (inactive) with NCI-H460; 36.5 µM (inactive) in the test on SF-539; 58.9 µM (inactive) in the test with PC-3; > 100 µM (inactive) in the test on LOX IMVI; > 100 µM (inactive) in the test with SN12C; 71.6 µM (inactive) in the test with HOP-62.

Turning to `NC(=S)N/N=C1\CCCCc2ccccc21`, the GI50 in the test with MOLT-4, with K562, in the test on RXF 393, in the test with COLO 205, in the test on HL-60 and in the test with CAKI-1 was > 10 µM (inactive) throughout. For the same compound, the GI50 with TK-10, in the test with U-251, in the test on M14, in the test on UO-31, in the test on Malme-3M and in the test on NCI-H460 was > 10 µM (inactive) throughout. Also, the GI50 in the test with PC-3, in the test with NCI-H522, in the test with SN12C and with HOP-62 was > 10 µM (inactive) throughout.

In the case of `COC1CC(OC2C(C)OC(OC3C(C)OC(OC4C(C)OC(O[C@H]5CC[C@@]6(C)C(=CC[C@]7(O)[C@@H]6C[C@@H](O)[C@@]6(C)[C@]7(O)CC[C@@]6(O)C(C)=O)C5)CC4OC)CC3OC)CC2OC)OC(C)C1O` (stereo not given in full), the GI50 in the test on MOLT-4, with SK-MEL-28, in the test with SNB-75, in the test with K562, with COLO 205 and with HL-60 was > 12.5 µM (inactive) each time. Further, the GI50 in the test with CAKI-1 was > 12.5 µM (inactive); with TK-10, > 12.5 µM (inactive); in the test on U-251, > 12.5 µM (inactive); with M14, > 12.5 µM (inactive); with UO-31, 12.4 µM (inactive); with Malme-3M, > 12.5 µM (inactive). For the same compound, the GI50 in the test with SF-539, in the test on PC-3, in the test on LOX IMVI, in the test on NCI-H522, in the test with SN12C and with HOP-62 was > 12.5 µM (inactive) in each case.

As for `COc1cc2c(cc1OC)C(=O)N(c1ccc(O)cc1)C2=O`, the GI50 in the test with MOLT-4, in the test with SK-MEL-28, in the test with K562, in the test with RXF 393, with COLO 205 and in the test with HL-60 was > 100 µM (inactive) throughout. Further, the GI50 with CAKI-1, with TK-10, with U-251, in the test on M14, in the test with Malme-3M and in the test on NCI-H460 was > 100 µM (inactive) in each case. Also, the GI50 with SF-539, with PC-3, in the test with LOX IMVI, in the test with NCI-H522, in the test with SN12C and in the test with HOP-62 was > 100 µM (inactive) throughout.

Turning to `COC(=O)NC1C(C)OC(OC2C/C=C(/C)C3C=CC4C(OC5CC(OC6CC(OC7CC(O)C(O)C(C)O7)C(OC7CC(O)C(OC)C(C)O7)C(C)O6)C(O)C(C)O5)C(C)CC(C)C4C3(C)C(=O)C3=C(O)C4(CC(C)C(CO)=CC4/C=C\2C)OC3=O)CC1(C)[N+](=O)[O-]` (stereo not given), the GI50 is 6.15 µM (inactive) with MOLT-4; 8.34 µM (inactive) in the test with SK-MEL-28; 2.47 µM (inactive) in the test on SNB-75; 11.3 µM (inactive) in the test with COLO 205; 2.54 µM (inactive) in the test with HL-60; 16 µM (inactive) in the test with CAKI-1. The GI50 in the test on TK-10 is 16.6 µM (inactive); with U-251, 3.84 µM (inactive); in the test with M14, 17.1 µM (inactive); with UO-31, 22.9 µM (inactive); with NCI-H460, 2.06 µM (inactive); with SF-539, 17.8 µM (inactive). Moreover, the GI50 is 16.3 µM (inactive) in the test on PC-3; 3.23 µM (inactive) with LOX IMVI; 2.99 µM (inactive) in the test on NCI-H522; 11.7 µM (inactive) in the test on SN12C; 3.38 µM (inactive) with HOP-62.

In the case of `Cc1ccn2c(=O)cc(CN3CCOCC3)nc2c1`, the GI50 with MOLT-4, with SK-MEL-28, in the test on SNB-75, in the test with K562, with COLO 205 and in the test on HL-60 was > 100 µM (inactive) each time. Moreover, the GI50 in the test with CAKI-1, with TK-10, with U-251, with M14, in the test on UO-31 and in the test on Malme-3M was > 100 µM (inactive) throughout. In addition, the GI50 with NCI-H460, with SF-539, with PC-3, with LOX IMVI, in the test on NCI-H522 and in the test with SN12C was > 100 µM (inactive) each time. The GI50 in the test on HOP-62 was > 100 µM (inactive).

`COc1cc(C2c3cc4c(cc3[C@@H](Nc3ccccc3)C3CO[C@@H](OC)[C@H]23)OCO4)cc(OC)c1O` (stereo not given in full): the GI50 in the test with MOLT-4 is 0.984 µM (active); with SK-MEL-28, 19.6 µM (inactive); with SNB-75, 7.41 µM (inactive); in the test on K562, 6.78 µM (inactive); in the test with COLO 205, 12.3 µM (inactive); in the test with HL-60, 2.87 µM (inactive). For the same compound, the GI50 in the test on TK-10 is 9.46 µM (inactive); in the test with U-251 it was 5.55 µM (inactive); with M14, 10.4 µM (inactive); in the test with UO-31 it was 3.01 µM (inactive); in the test on NCI-H460 it was 1.11 µM (active); with SF-539, 5.41 µM (inactive). In addition, the GI50 in the test with PC-3 was 8.81 µM (inactive); in the test on NCI-H522 it was 6.58 µM (inactive); in the test on SN12C, 7.36 µM (inactive); with HOP-62, 7.11 µM (inactive).

In the case of `COc1cc2c(c(OC)c1O)-c1ccc(OC)c(=O)cc1[C@@H](NC(=O)C(F)(F)F)CC2`, the GI50 in the test with COLO 205 was 0.0352 µM (active); with HL-60, 0.0217 µM (active); in the test with CAKI-1, 0.405 µM (active); with TK-10 it was > 100 µM (inactive); in the test on U-251, 0.324 µM (active); in the test with M14, 0.0634 µM (active). Also, the GI50 is 6.87 µM (inactive) with UO-31; 0.0641 µM (active) in the test with Malme-3M; 0.207 µM (active) in the test on NCI-H460; 0.0243 µM (active) in the test with SF-539; 0.0706 µM (active) in the test on PC-3; 0.163 µM (active) in the test with LOX IMVI. The GI50 with NCI-H522 is 0.0235 µM (active); in the test with SN12C, 2.52 µM (inactive); with HOP-62, 0.192 µM (active).

Regarding `Cc1nn2c(N)cc(=O)nc2nc1/C=C/c1ccc(N(C)C)cc1`, the GI50 was > 52 µM (inactive) in the test on MOLT-4; > 84.5 µM (inactive) with SK-MEL-28; 9.08 µM (inactive) in the test with K562; 98.6 µM (inactive) in the test with RXF 393; 7.74 µM (inactive) with COLO 205; < 0.01 µM (active) in the test on HL-60. Further, the GI50 is 3.45 µM (inactive) with CAKI-1; > 100 µM (inactive) in the test with TK-10; > 22.1 µM (inactive) in the test with U-251; > 28 µM (inactive) in the test on M14; 3.94 µM (inactive) in the test with UO-31; 5.2 µM (inactive) with Malme-3M. Besides, the GI50 is 6.89 µM (inactive) in the test on NCI-H460; > 100 µM (inactive) with PC-3; 4.11 µM (inactive) in the test on LOX IMVI; 1.66 µM (inactive) in the test with NCI-H522; > 65.6 µM (inactive) in the test with SN12C; 9.55 µM (inactive) with HOP-62.
